From patent EP3138849B1, “SALTS OF PHOSPHORUS-CONTAINING AMINOGLYCOSIDE ANTIBIOTICS” (Mathys AG Bettlach, priority 2015, dated 2017)

Key:
[1] = Release of aminoglycosides from coatings on pure titanium test discs; assay type: physicochemical; conditions: for Freisetzungsrate von Gentamicin-Base (time course) / initiale Freisetzung von Gentamicin-Base: coated titanium disc, 100 µg Gentamicin-Base per cm^2, 1 ml isotonic saline, 37 °C; for Freisetzungsrate von Gentamicin-Base (time course): 21 d, sampling at 1, 2, 3, 4, 7, 14, 21 days; for Freisetzungsrate von Gentamicin-Base (time course) / Wirkstofffreisetzung von beschichteten Titanoberflächen: Fig. 1; for initiale Freisetzung von Gentamicin-Base: Fig. 1, start of release; for Wirkstofffreisetzung von beschichteten Titanoberflächen: compared with Gentamicin-Palmitat
Text: Zur Untersuchung der Freisetzung von Aminoglykosiden aus Beschichtungen werden runde Probekörper aus Reintitan (Grade 4) mit einem Durchmesser von 11 mm verwendet. Für die Beschichtungen werden folgende Aminoglycosid-Verbindungen verwendet: Gentamicin-Palmitat, Gentamicin-Dodecylphosphat und Gentamicin-Octadecylphosphonsäure.
Umsetzung von Gentamicin mit Palmitat im molaren Verhältnis 1:4. Umsetzung von Gentamicin mit Dodecylphosphat bzw. Octadecylphosphonat im molaren Verhältnis 1:3.
Lösung von Gentamicin-Palmitat, Gentamicin-Dodecylphosphat und Gentamicin-Octadecylphosphonsäure in Ethanol (Konzentration 15-25 mg/ml). Auf die Oberfläche wurden unter sterilen Bedingungen 100 µg Gentamicin-Base pro cm^2 aufgetragen. Trocknen der Beschichtung (4 h bei Raumtemperatur).
Inkubation der beschichteten Probekörper in 1 ml isotonischer Kochsalzlösung über eine Zeitdauer von 21 d bei 37 °C. Zu festgelegten Zeitpunkten (1, 2, 3, 4, 7, 14 und 21 Tagen) werden die Überstände abgenommen und die Probekörper in neuer isotonischer Kochsalzlösung weiter inkubiert.
Der Gehalt an Gentamicin wurde im Hemmhoftest mit Bacillus subtilis (ATCC 6633) bestimmt.
Die gemittelte Menge der freigesetzten Gentamicin-Base aus diesen Gentamicin-Salzen ist in Fig. 1 dargestellt.

[2] = test system: MC 3T3-E1-Zellen; assay type: cell-based, Maus
Method: Für die Untersuchungen der Cytokompatibilität der aminoglykosidhaltigen Beschichtungen werden runde, sandgestrahlte Probekörper aus Reintitan mit einem Durchmesser von 11 mm mit Gentamicin-Palmitat, Gentamicin-Dodecylphosphat bzw. Gentamicin-Octadecylphosphonsäure mit einem Gehalt von 100 µg Gentamicn-Base pro cm^2, wie in Beispiel 30 beschrieben, beschichtet.
Die Probekörper werden nach dem Trocknen der Beschichtung in Mikrotiterplatten überführt und mit einer definierten Anzahl von MC 3T3-E1-Zellen (Maus-Präosteoblasten-Zelllinie, 25.000 Zellen/ml) besiedelt.
Nach einer Inkubationszeit von 4 Tagen erfolgt die Vitalfärbung mit einer Mischung aus Fluoresceindiacetat (FDA) und GelRed®.
Fig. 2 zeigt die Vitalitätsbestimmung der Zellen mittels Auflicht-Fluoreszenzmikroskopie: Gentamicin-Palmitat (A), Gentamicin-Dodecylphosphat (B), Gentamicin-Octadecylphosphat (C).

Substance	Freisetzungsrate von Gentamicin-Base (time course) [1]	initiale Freisetzung von Gentamicin-Base [1]	Wirkstofffreisetzung von beschichteten Titanoberflächen [1]	Zytotoxizität [2]	Zellzahlen [2]
Gentamicin-Dodecylphosphat	bleibt bis Tag 7 konstant und fällt dann nur schwach ab	niedrigere Freisetzungsrate von Gentamicin-Base als das Gentamicin-Palmitat	retardierende Wirkstofffreisetzung	signifikant geringere Zytotoxizität	–
Gentamicin-Octadecylphosphonsäure	bleibt von Tag 2 bis Tag 14 konstant	niedrigste initiale Freisetzung von Gentamicin-Base	retardierende Wirkstofffreisetzung	–	–
Gentamicin-Palmitat [reference compound]	bis zum vierten Freisetzungstag stark abnimmt	initial hohen Freisetzung der Gentamicin-Base (Burst release)	–	–	niedrigsten Zellzahlen
